Molecules are shown by their SMILES.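 Protocol summary: plate cells (96-well), add compound at 5 concentrations, incubate 48 h, interpolate endpoints linearly. The concentration for 50% growth inhibition is given as GI50.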 Activity calls are given as the source filed them. Rule as the data show it: active = GI50 up to about 1.1 µM and inactive = higher.

From ChEMBL document CHEMBL1201862, “PubChem BioAssay data set” (2004) come the findings set out here.

Among the test systems are T47D; COLO 205; KM12; OVCAR-4; SN12C; SK-MEL-5; SK-MEL-28; HCT-15; CAKI-1; TK-10; UO-31; U-251; SNB-19; OVCAR-8; SF-268; MDA-MB-435; EKVX; HOP-92; NCI-H226; A498.
Common to all, as to assay: DTP human tumour cell line panel, 48 h

For the compound `COC1=N[C@H](C(C)C)C(OC)=N[C@H]1Cc1ccc(C[C@@H]2N=C(OC)[C@@H](C(C)C)N=C2OC)s1`, the GI50 (commonly the concentration giving 50% growth inhibition) in the experiment with T47D was 13.5 µM (inactive); in the experiment with COLO 205, 22.1 µM (inactive); with KM12, 38.6 µM (inactive); with OVCAR-4, 37.7 µM (inactive); in the experiment on SN12C, 43.3 µM (inactive); in the experiment on SK-MEL-5 it was 20.8 µM (inactive). Also, the GI50 in the experiment with SK-MEL-28 was 34.7 µM (inactive); in the experiment on HCT-15, 46.1 µM; in the experiment on CAKI-1, 50.2 µM (inactive); with TK-10 it was > 100 µM (inactive); with UO-31 it was 45.4 µM (inactive); with U-251, 24 µM (inactive). For the same compound, the GI50 in the experiment on SNB-19 is 54.5 µM (inactive); in the experiment on OVCAR-8, 76.9 µM (inactive); in the experiment on SF-268, 67.8 µM (inactive); with MDA-MB-435 it was 33.1 µM (inactive); in the experiment on EKVX it was 24.8 µM (inactive); in the experiment with HOP-92, > 100 µM (inactive).

As for `CN(C)CCNC(=O)c1cccc2c(NC(CCCNC(=N)N)C(=O)O)c3ccccc3nc12` (stereo not given), the GI50 with COLO 205 is 6.22 µM (inactive); in the experiment on KM12, 7.26 µM (inactive); in the experiment with OVCAR-4, 5.09 µM (inactive); in the experiment with SN12C it was 10.5 µM (inactive); in the experiment on NCI-H226, 3.88 µM (inactive); with SK-MEL-5, 6.05 µM (inactive). The GI50 is 25.7 µM (inactive) with SK-MEL-28; 6.37 µM in the experiment on HCT-15; 21.1 µM (inactive) with TK-10; 2.82 µM (inactive) with UO-31; 14.3 µM (inactive) in the experiment on U-251; 3.94 µM (inactive) in the experiment on SNB-19. In addition, the GI50 is 4.13 µM (inactive) in the experiment on OVCAR-8; 9.2 µM (inactive) in the experiment on SF-268; 19.8 µM (inactive) in the experiment on A498; 10.1 µM (inactive) with MDA-MB-435; 3.48 µM (inactive) with EKVX; 3.85 µM (inactive) in the experiment on HOP-92.

In the case of `O=C(Nc1ccc(N2C(=O)CSC2c2ccccc2O)cc1)c1ccc(N2C(=O)CSC2c2ccccc2O)cc1` (stereo not given), the GI50 with T47D is 43.3 µM (inactive); with COLO 205 it was > 100 µM (inactive); in the experiment with KM12, > 100 µM (inactive); in the experiment with OVCAR-4, 67.6 µM (inactive); with SN12C, > 100 µM (inactive); with SK-MEL-5 it was 77.4 µM (inactive). Further, the GI50 was 39.1 µM (inactive) in the experiment with SK-MEL-28; more than 100 µM in the experiment on HCT-15; > 100 µM (inactive) in the experiment with CAKI-1; 74 µM (inactive) with TK-10; 54.5 µM (inactive) with UO-31; 34 µM (inactive) in the experiment on U-251. For the same compound, the GI50 with SNB-19 is 31.4 µM (inactive); with OVCAR-8 it was 51.3 µM (inactive); with SF-268 it was 95.1 µM (inactive); with MDA-MB-435 it was 61 µM (inactive); in the experiment with EKVX, 79.4 µM (inactive); in the experiment on HOP-92, 26.7 µM (inactive).

As to `O=[N+]([O-])c1ccc(Cl)c2c([N+](=O)[O-])cccc12`, the GI50 with T47D is 4.22 µM (inactive); with COLO 205, 4.57 µM (inactive); in the experiment on KM12, 3.2 µM (inactive); with OVCAR-4, 6.22 µM (inactive); with SN12C, 4.56 µM (inactive); with SK-MEL-5, 2.33 µM (inactive). The GI50 with SK-MEL-28 is 7.93 µM (inactive); in the experiment with HCT-15, 2.77 µM; with TK-10, 9.57 µM (inactive); in the experiment on SNB-19, 8.51 µM (inactive); in the experiment with OVCAR-8, 3.5 µM (inactive); in the experiment with SF-268 it was 3.87 µM (inactive). The results for the GI50 in the experiment on MDA-MB-435, in the experiment with EKVX and in the experiment with HOP-92 were 3.1 µM (inactive), > 10 µM (inactive) and 3.96 µM (inactive), respectively.

Regarding `CC1=C(c2cc(C(=O)Nc3cccc(C(F)(F)F)c3)ncn2)Sc2ccccc2N1`, the GI50 in the experiment with COLO 205, in the experiment on KM12, with OVCAR-4, in the experiment with SN12C, in the experiment with NCI-H226 and with SK-MEL-5 was > 100 µM (inactive) each time. Besides, the GI50 in the experiment with SK-MEL-28 was > 100 µM (inactive); with HCT-15 it was more than 100 µM; in the experiment with CAKI-1, > 100 µM (inactive); in the experiment on TK-10 it was > 100 µM (inactive); in the experiment with UO-31, > 100 µM (inactive); in the experiment on U-251 it was > 100 µM (inactive). Besides, the GI50 in the experiment on SNB-19, in the experiment with OVCAR-8, in the experiment with SF-268, with A498, in the experiment on EKVX and with HOP-92 was > 100 µM (inactive) each time.

Consider `COC([C@@H](OC(=O)c1ccccc1)[C@H](OC(=O)c1ccccc1)C(O)COC(=O)c1ccccc1)n1cc(C)c(=O)[nH]c1=O` (stereo not given in full), for which the GI50 is 11.6 µM (inactive) in the experiment on T47D; 22 µM (inactive) in the experiment on COLO 205; 7.83 µM (inactive) in the experiment on OVCAR-4; 43.2 µM (inactive) with SN12C; 20.8 µM (inactive) in the experiment on NCI-H226; 11.7 µM (inactive) in the experiment on SK-MEL-5. The GI50 in the experiment with SK-MEL-28 was 39.3 µM (inactive); with HCT-15, 27 µM; with TK-10 it was 33.8 µM (inactive); in the experiment on UO-31, 25.5 µM (inactive); in the experiment with U-251, 14.5 µM (inactive); in the experiment on SNB-19 it was 22.2 µM (inactive). Besides, the GI50 in the experiment with OVCAR-8 was 39.1 µM (inactive); with SF-268 it was 29.7 µM (inactive); in the experiment with MDA-MB-435, 20 µM (inactive); with EKVX it was 26.1 µM (inactive).

Turning to `C=CCNC(=O)N(CCCCC(NC(C)=O)C(=O)NCc1ccccc1)Cc1ccccc1` (stereo not given), the GI50 in the experiment with COLO 205, in the experiment with KM12, with OVCAR-4, in the experiment on SN12C, with NCI-H226 and with SK-MEL-5 was > 100 µM (inactive) in each case. Also, the GI50 is > 100 µM (inactive) in the experiment with SK-MEL-28; more than 100 µM in the experiment on HCT-15; > 100 µM (inactive) in the experiment on CAKI-1; > 100 µM (inactive) with TK-10; > 100 µM (inactive) in the experiment with UO-31; > 100 µM (inactive) with U-251. The GI50 was > 100 µM (inactive) with SNB-19; > 100 µM (inactive) in the experiment on OVCAR-8; > 100 µM (inactive) in the experiment on SF-268; > 100 µM (inactive) in the experiment on A498; > 100 µM (inactive) in the experiment on EKVX; 65.8 µM (inactive) with HOP-92.

Consider `O=C(CO)CC(=O)C(=O)Nc1nc([N+](=O)[O-])cs1`, for which the GI50 in the experiment on COLO 205, in the experiment with KM12, in the experiment with OVCAR-4, with SN12C, in the experiment on NCI-H226 and in the experiment on SK-MEL-5 was > 100 µM (inactive) throughout. Also, the GI50 is > 100 µM (inactive) in the experiment with SK-MEL-28; more than 100 µM in the experiment with HCT-15; > 100 µM (inactive) in the experiment with CAKI-1; > 100 µM (inactive) in the experiment with TK-10; > 100 µM (inactive) in the experiment with UO-31; > 100 µM (inactive) with U-251. In addition, the GI50 with SNB-19 was > 100 µM (inactive); in the experiment with OVCAR-8, > 100 µM (inactive); with SF-268, > 100 µM (inactive); in the experiment on A498 it was > 100 µM (inactive); with EKVX, > 100 µM (inactive); with HOP-92, > 10 µM (inactive).

As to `COc1ccc(OC)c2[nH]c(Sc3c([N+](=O)[O-])ncn3C)nc12`, the GI50 with COLO 205 is 11.6 µM (inactive); in the experiment on KM12, 43.1 µM (inactive); in the experiment with OVCAR-4, 22.9 µM (inactive); with SN12C, 19.9 µM (inactive); in the experiment with NCI-H226 it was 14.2 µM (inactive); in the experiment with SK-MEL-5, 17.6 µM (inactive). Besides, the GI50 was 24.3 µM (inactive) in the experiment on SK-MEL-28; 16 µM with HCT-15; 17.1 µM (inactive) in the experiment on CAKI-1; 23.6 µM (inactive) in the experiment with TK-10; 28.6 µM (inactive) with UO-31; 28.9 µM (inactive) in the experiment on U-251. The GI50 in the experiment on SNB-19 is > 10 µM (inactive); in the experiment with OVCAR-8 it was 17.6 µM (inactive); in the experiment with SF-268, 26.5 µM (inactive); in the experiment with A498 it was 31 µM (inactive); in the experiment on EKVX, 23.1 µM (inactive); in the experiment with HOP-92, 16.9 µM (inactive).

Consider `CCOC(=O)CSc1[nH]c2nc(C)nc(Cl)c2c1C#N`, for which the GI50 with T47D, in the experiment with COLO 205, with KM12, with OVCAR-4, in the experiment on SN12C and with SK-MEL-5 was > 10 µM (inactive) in each case. The GI50 in the experiment with SK-MEL-28 was > 10 µM (inactive); with HCT-15, more than 10 µM; in the experiment on CAKI-1, > 10 µM (inactive); in the experiment with TK-10 it was > 10 µM (inactive); in the experiment with OVCAR-8, > 10 µM (inactive); in the experiment on SF-268, > 10 µM (inactive). Further, the GI50 with MDA-MB-435, in the experiment with EKVX and in the experiment on HOP-92 was > 10 µM (inactive) each time.

Turning to `Cc1ccc(S(=O)(=O)N/N=C\c2c3ccccc3[n+]([O-])c3ccccc23)cc1`, the GI50 was 2.72 µM (inactive) with COLO 205; 9.55 µM (inactive) with KM12; 10.8 µM (inactive) in the experiment on OVCAR-4; 4.59 µM (inactive) in the experiment on SN12C; 4.54 µM (inactive) in the experiment on NCI-H226; 5.21 µM (inactive) with SK-MEL-5. In addition, the GI50 in the experiment on SK-MEL-28 is 3.78 µM (inactive); in the experiment on HCT-15 it was 0.989 µM; with CAKI-1, 6.28 µM (inactive); with TK-10, 4.9 µM (inactive); in the experiment on UO-31, 14.1 µM (inactive); in the experiment with U-251, 3.93 µM (inactive). Moreover, the GI50 in the experiment with SNB-19 is 11.9 µM (inactive); in the experiment on OVCAR-8, 4.03 µM (inactive); in the experiment with SF-268 it was 4.23 µM (inactive); in the experiment with A498, 3.8 µM (inactive); with EKVX it was 20 µM (inactive); in the experiment with HOP-92, 3.68 µM (inactive).
